Literature values in patent EP3933036B1, “PROCESS FOR 7-BETA-HYDROXYLATION OF BILE ACID DERIVATIVES” (MICROMUN Institut für Mikrobiologische Forschung GmbH, priority 2020, dated 2022).

Details: at 298 K

Structure (SMILES)	octanol/water partition coefficient (KOW)
C[S+](C)[O-] [DMSO]	2
CC#N [acetonitrile]	2
CCOC(C)=O [ethyl acetate]	11
